Results from patent US20210038559A1, “CANNABINOIDS AND DERIVATIVES FOR PROMOTING IMMUNOGENICITY OF TUMOR AND INFECTED CELLS” (priority 2018, published 2021).

How the values were obtained:
[1] = system: CD8+ T cells from OT1 mice co-cultured with A9 cells; test: OT1 CD8+ T cell proliferation (CFSE) in co-culture with […]-loaded A9 cells; format: cell-based, mouse
Protocol: FIG. 8. A proliferation experiment using CD8^+ T cells from […]-primed OT1 mice in response to […] peptide presented on MHC class I of A9 cells. A9 cells were treated with 0.055 μM of Cannabigerol, 5.832×10^−6 nM of IFN gamma positive control. The negative control is named “CFSE and […] CD8^+ T cells”. T cells were labeled with CFSE proliferation dye, which is reduced within the progeny cells as the generations progress.
FIG. 9 MHC Class I expression of A9 cells associated with CD8^+ T cells from […]-primed OT. A9 cells were treated with 0.055 μM of Cannabigerol, or 5.832×10^4 nM of IFN gamma.
A cytolytic assay was performed as follows. A9 cells (1×10^6) were plated onto a 6 well plate in two mL of RPMI media (Advanced RPMI-1640 Medium (Gibco), 100 U/mL of Penicillin-Streptomycin (P+S) (Thermofisher), 1% L-Glutamine (Gibco), and 10% FBS). A9 cells were treated with either Cannabigerol 0.055 μM, 5.832×10^4 nM IFN gamma, or 1% DMSO vehicle. After 24 hours, […] OVA Peptide ([…]) (Genscript), was added to the A9 cells. Following an additional 24 hours, CD8^+ T cells were collected from OT1 mouse spleens. […] An extra well of untreated A9 cells was counted and used as a standard count. CD8^+ T cells were counted and then treated with CFSE (Biolegend) per manufacture protocol, before being co-cultured with A9 cells to a 1:1 ratio or a 1:5 ratio. […]

[2] = system: MHC class I expression, mouse Lewis lung carcinoma cell line A9; test: MHC class I expression in mouse A9 Lewis lung carcinoma cells, 24 hours, flow cytometry; format: cell-based; conditions: 21 μM, relative to the DMSO control
Protocol: FIG. 1A-1B. Cannabigerol stimulates MHC class I expression in the mouse A9 Lewis lung carcinoma (FIG. 1A) and the human COLO 205 colorectal carcinoma (FIG. 1B) cell lines. Cells were treated for 24 hours with 21.2 μM (A) or 25 and 50 μM (FIG. 1B) cannabigerol.
Cannabigerol, a representative cannabinoid, was tested for its ability to also stimulate MHC class I expression in mammalian cancer cell lines. The mouse Lewis lung carcinoma cell line, A9, was treated with 21 μM of cannabigerol for 24 hours prior to flow cytometric analysis of cell surface expression of MHC class I expression levels using the MHC class I antibody W6/32 (Thermo Fisher). Control conditions included the vehicle, dimethyl sulfoxide (DMSO, 1%) alone, and 100 ng/ml of trichostatin A (TSA), a histone deacetylase inhibitor and known inducer of MHC class I expression in mammalian cells. […] The positive control, TSA, stimulated expression by 2.4-fold.

MHC class I, A9 cells = format: cell-based, mouse; conditions: 48 hours
Protocol: FIG. 6. Cannabigerol treatment of A9 cells for 48 hours at various doses increases MHC class I protein expression, as determined by flow cytometry. […] IFN γ treatment was at 5.832×10^−6 in two mL of media.
The effect of cannabigerol on MHC class I in A9 cancer cells were determined as follows. A9 cells (1×10^6) were plated onto a 6 well plate (Corning) in two mL of media. A9 cells were treated after 24 hours at various concentrations of Cannabigerol, 5.832×10^4 nM IFN gamma or DMSO vehicle for 48 hours. Cells were then harvested from the plate as per protocol and half of the cells were checked for MHC class I expression levels using flow cytometry. The Anti-mouse H2 KB APC antibody (Biolegend) was used at 1:200 in FACS buffer (2% FBS in PBS).

[3] = system: MHC class I expression on COLO 205 cells; test: MHC class I expression on COLO 205 cells, 24 hours, flow cytometry (W6/32); conditions: for MFI: W6/32 staining; for increase in MHC class I expression: 24 hours, relative to non-treated cells
Protocol: FIG. 2A-2F. […] Cells were treated for 24 hours and cell surface MHC class I expression was measured by flow cytometry.
Cannabigerol was also tested for its capacity to induce MHC class I expression in a human colorectal carcinoma cell line, COLO 205. The cells were treated with either 25 μM or 50 μM cannabigerol for 24 hours. Fluorophor (Alexa Fluor 488)-conjugated W6/32 antibody (Thermo Fisher) was used in a flow cytometry assay to quantitate MHC class I expression. […] Cannabigerol is only one of many cannabinoid-like molecules with potential biopharmaceutical activity. […] COLO 205 cells were treated with up to 40 μM of the cannabinoids 1-5 presented in Tables 1 and 2 and evaluated for cell surface MHC class I expression as described above for cannabigerol.

[4] = system: MHC-I expression on COLO 205 cells; test: Phytocannabinoid MHC-I induction on COLO 205 cells, 0-100 μM, 48 hours
Protocol: FIG. 4. Cell surface MHC class I expression was measured by flow cytometry (MFI).
Phytocannabinoids were tested for MHC-I-inducing activity on COLO 205 cells. Each cannabinoid was tested at a concentration range of 0-100 μM. […] “ND” indicates not determined.

## CCCCCc1cc(O)c(C/C=C(\C)CCC=C(C)C)c(O)c1 [Example 1, 2-[(2E)-3,7-dimethyl-2,6-octadien-1-yl]-5-pentyl-1,3-benzenediol]
[1]; A9 cells treated with 0.055 μM
  MHC class I on the A9 cells associated with the OT1 T cells: increase
[1]; A9 cells treated with 0.055 μM for 48 hours prior to co-culture
  proliferation of OT1 CD8+ T cells: increased proliferation
[2]
  cell death: limited cell death
  increase in MHC class I expression: 1.8 fold
MHC class I, A9 cells; 0.0275 μM
  upregulation of class I MHC: less upregulation
MHC class I, A9 cells; 0.055 μM, relative to vehicle (DMSO), p value <0.0001, one-way ANOVA
  class I MHC expression: significant increase
[3]; COLO 205, 10 μM
  MFI: 125
[3]; COLO 205, 20 μM
  MFI: 130
[3]; COLO 205, 25 μM
  increase in MHC class I expression: 25%
[3]; COLO 205, 30 μM
  MFI: 130
[3]; COLO 205, 40 μM
  MFI: 164
[3]; COLO 205, 50 μM
  increase in MHC class I expression: 2 fold
[3]; COLO 205, all treatment conditions (25 μM or 50 μM, 24 hours)
  Cell viability: > 95%
[3]; Homo sapiens, COLO 205
  fold induction at 10 µM: 1.03
  fold induction at 20 µM: 1.07
  fold induction at 30 µM: 1.07
  fold induction at 40 µM: 1.36
[4]; Homo sapiens, COLO 205, 48 h
  EC50: 40 µM
[4]; MHC-I expression on COLO 205 cells, 0-100 μM, 48 hours, relative to control cells treated only with buffer
  Fold Induction: 2.7 Fold
